Results on seven compounds are retold here after article PMC3640759 (Molecular and biochemical parasitology, 2013).

In series [1] the test system is P. falciparum 3D7 strain stage III–V gametocytes. As to the kind of experiment: alamarBlue gametocyte viability assay, 1,536-well plate format. Format: cell-based, Plasmodium falciparum. For orientation: Resazurin is reduced to fluorescent resorufin, in cell work by metabolically active cells.
A short description of series [2]: cytotoxicity assay against SH-SY5Y neuroblastoma cells. The note with it: human.
Series [3] can be described thus: in vitro. To be noted: human.
The test system of series [4] is SH-SY5Y neuroblastoma cell line. Briefly: cytotoxicity assay against SH-SY5Y neuroblastoma cells. To be noted: SH-SY5Y cells; lowest compound concentration 0.37 μM.
The test system of series [5] is P. falciparum gametocytes. The note with it: read-out: IC50 reported in 96-well plate format; cited from earlier work.
Setting [6] is: Plasmodium falciparum, 3D7, 72 h, read-out: IC50 (gametocyte assay).

Where two headings read alike, the source gives them in different places.

`Cc1cc(NC2CCCCC2)nc(-n2nc(C)cc2C)n1` [CyPPA, Cyclohexyl-[2-(3,5-dimethyl-pyrazol-1-yl)-6-methyl-pyrimidin-4-yl]-amine]: the IC50 in series [1] (setting [6]) is 1170 nM; in series [2] (SH-SY5Y neuroblastoma cells) it was 9.16 µM.

As to `CCN(CC)C(=S)SSC(=S)N(CC)CC` [Antabuse], the results for the IC50 in series [1] (setting [6]) and in series [3] were 250 nM and 13.4 µM, respectively.

As to `CNc1ccc2oc(C[C@H]3O[C@@]4(CC[C@H]3C)O[C@H]([C@H](C)C(=O)c3ccc[nH]3)[C@H](C)C[C@H]4C)nc2c1C(=O)O` [Calcimycin], the IC50 in series [1] (setting [6]) amounted to 1960 nM; in series [2], 1.37 µM.

With `c1cnc2c(c1)ccc1cccnc12` [Phenanthroline, 1,10-phenanthroline], the IC50 came to 2190 nM in series [1] (setting [6]) and 5.45 µM in series [2] (SH-SY5Y neuroblastoma cells).

`c1ccc2c(c1)[I+]c1ccccc1-2` [Dibenziodolium]: in series [4], the “cytotoxicity at lowest compound concentration tested” value is “completely cytotoxic”.

In series [3], `Clc1ccccc1C(c1ccccc1)(c1ccccc1)n1ccnc1` [Clotrimazole] displayed a concentration for half-maximal inhibition (IC50) of 9.48 µM.

With `CC[C@H](C)[C@H](NC(=O)[C@H]([C@@H](C)CC)N(C)C(C)=O)C(=O)N[C@H](C(=O)N[C@@H](CC(C)C)C(=O)[C@@]1(C)CO1)[C@@H](C)O` [epoxomicin], the IC50 in series [5] is 2.16 nM; in series [1] (seeding density 10 k gametocytes/well, 1,536-well plate), 1.3 nM; in series [1] (seeding density 20 k gametocytes/well, 1,536-well plate) it was 1.8 nM; in series [1] (seeding density 27.5 k gametocytes/well, 1,536-well plate), 2.1 nM.

What is called IC50 is the midpoint of a concentration-inhibition curve.
